In patent US20260191968A1, “PROTAC DEGRADERS OF MLLT1 AND/OR MLLT3” (DARK BLUE THERAPEUTICS LTD, priority 2024, published 2026):

Biological target: T1, MLLT1 (Homo sapiens, UniProt Q03111)
T1 construct: host or cells: MV4-11
T1 sequence (Q03111 1-559): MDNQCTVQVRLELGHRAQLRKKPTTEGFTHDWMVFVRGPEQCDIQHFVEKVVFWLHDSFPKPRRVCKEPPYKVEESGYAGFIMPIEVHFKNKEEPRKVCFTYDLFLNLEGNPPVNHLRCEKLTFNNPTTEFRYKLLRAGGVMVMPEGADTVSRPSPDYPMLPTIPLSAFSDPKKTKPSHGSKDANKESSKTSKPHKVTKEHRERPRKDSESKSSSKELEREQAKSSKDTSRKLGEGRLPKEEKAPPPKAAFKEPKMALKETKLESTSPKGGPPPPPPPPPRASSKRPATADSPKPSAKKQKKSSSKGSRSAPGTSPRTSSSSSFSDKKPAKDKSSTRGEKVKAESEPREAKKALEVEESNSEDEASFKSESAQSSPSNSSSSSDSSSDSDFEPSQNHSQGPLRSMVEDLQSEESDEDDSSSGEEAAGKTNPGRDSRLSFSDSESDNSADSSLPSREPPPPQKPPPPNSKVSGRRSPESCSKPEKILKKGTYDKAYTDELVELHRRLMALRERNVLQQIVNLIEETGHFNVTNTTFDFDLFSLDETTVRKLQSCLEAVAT
Assay: MLLT1 degradation assay in MV4-11 cells (JESS chemiluminescent detection), three concentrations, 24 h
Format: cell-based
Details: with respect to DMSO control
How it was run: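 Read-out is % MLLT1 degradation versus DMSO, from band peak areas on a JESS chemiluminescent system. Cells (MV4-11) were exposed for 24 h at 37° C to three compound levels, 10, 100 and 1000 nM, in 0.1% DMSO.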

Compound	MLLT1% Degradation @ 0.01 μM	MLLT1% Degradation @ 0.1 μM	MLLT1% Degradation @ 1 μM
CN1CCC[C@@H]1c1cc2cnc(NC(=O)c3ccc(N4CC[C@H](CC#Cc5cccc6c5CN(C5CCC(=O)NC5=O)C6=O)C4)nc3)cc2[nH]1 (stereo partly drawn) [Example 187, 6-((3S)-3-(3-(2-(2,6-dioxopiperidin-3-yl)-1-oxoisoindolin-4-yl)prop-2-yn-1-yl)pyrrolidin-1-yl)-N-(2-((R)-1-methylpyrrolidin-2-yl)-1H-pyrrolo[3,2-c]pyridin-6-yl)nicotinamide]	B (Category B: 50% ≤ B < 75% degradation)	B (Category B: 50% ≤ B < 75% degradation)	B (Category B: 50% ≤ B < 75% degradation)
CN1CCC[C@@H]1c1cc2cnc(NC(=O)c3ccc(N4CCC(CCCCC#Cc5cccc6c5CN(C5CCC(=O)NC5=O)C6=O)CC4)nc3)cc2[nH]1 (stereo partly drawn) [Example 188, 6-(4-(6-(2-(2,6-dioxopiperidin-3-yl)-1-oxoisoindolin-4-yl)hex-5-yn-1-yl)piperidin-1-yl)-N-(2-((R)-1-methylpyrrolidin-2-yl)-1H-pyrrolo[3,2-c]pyridin-6-yl)nicotinamide]	C (Category C: 25% ≤ C < 50% degradation)	B (Category B: 50% ≤ B < 75% degradation)	B (Category B: 50% ≤ B < 75% degradation)
CN1CCC[C@@H]1c1cc2cnc(NC(=O)c3ccc(N4CCN(C(=O)CCC5CCN(c6cccc7c6CN(C6CCC(=O)NC6=O)C7=O)CC5)CC4)cc3)cc2[nH]1 (stereo partly drawn) [Example 189, 4-(4-(3-(1-(2-(2,6-dioxopiperidin-3-yl)-1-oxoisoindolin-4-yl)piperidin-4-yl)propanoyl)piperazin-1-yl)-N-(2-((R)-1-methylpyrrolidin-2-yl)-1H-pyrrolo[3,2-c]pyridin-6-yl)benzamide]	B (Category B: 50% ≤ B < 75% degradation)	B (Category B: 50% ≤ B < 75% degradation)	C (Category C: 25% ≤ C < 50% degradation)
CN1CCC[C@@H]1c1cc2cnc(NC(=O)c3cccc(N4CCN(CC5CCN(c6ccc7c(c6)CN(C6CCC(=O)NC6=O)C7=O)CC5)CC4)c3)cc2[nH]1 (stereo partly drawn) [Example 192, 3-(4-((1-(2-(2,6-dioxopiperidin-3-yl)-1-oxoisoindolin-5-yl)piperidin-4-yl)methyl)piperazin-1-yl)-N-(2-((R)-1-methylpyrrolidin-2-yl)-1H-pyrrolo[3,2-c]pyridin-6-yl)benzamide]	B (Category B: 50% ≤ B < 75% degradation)	B (Category B: 50% ≤ B < 75% degradation)	C (Category C: 25% ≤ C < 50% degradation)
Cc1cc(OC2CCN(c3ccc(C(=O)Nc4cc5[nH]c([C@H]6CCCN6C)cc5cn4)cn3)CC2)ccc1-c1cccc2c1CN(C1CCC(=O)NC1=O)C2=O (stereo partly drawn) [Example 196, 6-(4-(4-(2-(2,6-dioxopiperidin-3-yl)-1-oxoisoindolin-4-yl)-3-methylphenoxy)piperidin-1-yl)-N-(2-((R)-1-methylpyrrolidin-2-yl)-1H-pyrrolo[3,2-c]pyridin-6-yl)nicotinamide]	D (Category D: D < 25% degradation)	B (Category B: 50% ≤ B < 75% degradation)	A (Category A: A ≥ 75% degradation)
CN1CCC[C@@H]1c1cc2cnc(NC(=O)c3ccc(CCCN4CCC(c5cccc6c5CN(C5CCC(=O)NC5=O)C6=O)CC4)cc3)cc2[nH]1 (stereo partly drawn) [Example 198, 4-(3-(4-(2-(2,6-dioxopiperidin-3-yl)-1-oxoisoindolin-4-yl)piperidin-1-yl)propyl)-N-(2-((R)-1-methylpyrrolidin-2-yl)-1H-pyrrolo[3,2-c]pyridin-6-yl)benzamide]	C (Category C: 25% ≤ C < 50% degradation)	A (Category A: A ≥ 75% degradation)	A (Category A: A ≥ 75% degradation)
